Key:
[1] = tested on: MDA-pc3 and MDA-B6 cells; experiment: Cell death assays (propidium iodide and 7-AAD staining); format: cell-based, human; conditions: MDA-pc3 vs MDA-B6, 25 nM, 72 h (FIGS. 5A, 5B)
Method: FIG. 5. Inhibition of SRC induces cell death more efficiently in EPHB6-deficient cells. A. MDA-pc3, and MDA-B6 cells were cultured in glass-bottom plates in the presence of 25 nM KX2-391 or DMSO for 72 h and stained with 2.7 μg/mL propidium iodide (PI) in phenol red-free medium. Stained cells were imaged at 200× magnification using Zeiss LSM 700 confocal microscope and PI-stained cells were counted in at least 10 randomly captured frames. Counts of PI-positive cells were normalized on the total cell numbers in matching frames. […] B. MDA-pc3 and MDA-B6 cells were cultured in 6-well plates in the presence of 25 nM KX2-391 or a matching volume of DMSO for 72 h. Cells were collected and stained for 7-AAD for 15 minutes at room temperature. Cells were analyzed by flow cytometry and the FlowJo software. […] All experiments were performed at least three times. Scale bar, 100 μm. *, P<0.05, Student's t-test.
For propidium iodide (PI) staining, MDA-MB-231 and BT-20 cells were incubated in glass-bottom plates (MatTek, Ashland, Mass., USA) for 72 h and 96 h, respectively, with KX2-391 and matching volumes of DMSO. […] The amount of PI-stained cells was analyzed by microscopy using a Zeiss Observer Z1 at 200× magnification. […] PI-stained cells were counted in at least 10 randomly captured frames, normalized on the total number of cells in matching frames and compared between DMSO controls and treated cells. […]

[2] = tested on: prostate cancer; conditions: reference [26]; cited from earlier work
[3] = tested on: BT-20 cells (EPHB6-targeting shRNA vs non-silencing shRNA); experiment: Drug sensitivity assay (resazurin), SRC inhibitors, BT-20 cells with silenced EPHB6; format: cell-based, human; conditions: BT-20 with EPHB6-targeting shRNA vs non-silencing shRNA, 96 h (FIGS. 6A-6E)
Method: FIG. 6. SL relation between EPHB6 and SRC in BT-20 TNBC cells. A. Triple negative breast cancer cells, BT-20, were transduced with EPHB6-targeting shRNA (BT20-66-shRNA), or non-silencing shRNA (BT2O-NS). EPHB6 expression was analyzed by Western blotting with anti-EPHB6. Western blotting with anti-tubulin was used as a loading control. B. BT20-66-shRNA and BT2O-NS cells were cultured in 96-well plates with indicated concentrations of SU6656 or matching volumes of DMSO for 96 h. Cells were stained with resazurin and fluorescence was measured using a SpectraMax M5 plate reader to determine cell suppression. Five wells were analyzed per condition. […] C. […] Cells were stained with resazurin and fluorescence was measured using a SpectraMax M5 plate reader to determine cell suppression. Five wells were analyzed per condition. […] PI-stained cells were counted in at least 10 randomly captured frames. […] Stained cells were analyzed by flow cytometry and the FlowJo software. […]
MDA-MB-231 and BT-20 cell monolayers were incubated in 96-well plates for 72 h and 96 h, respectively, with indicated concentrations of KX2-391 or SU6656, or matching volumes of DMSO as a solvent control. Treated cells were stained using resazurin by following the manufacturer's instructions and fluorescence was measured using a SpectraMax M5 microplate reader.

O=C(Cc1ccc(-c2ccc(OCCN3CCOCC3)cc2)cn1)NCc1ccccc1 [KX2-391]
induction of cell death (Propidium Iodide or 7-AAD staining) [1]: more efficient in inducing cell death, when the EPHB6 receptor is not expressed
clinical effect in phase II trials for prostate cancer [2]: relatively modest effect
cell suppression after silencing of EPHB6 expression [3]: strongly increased their suppression

From patent US20190203253A1, “METHODS OF IDENTIFYING AND TREATING CANCER PATIENTS WITH AN EPHB6 DEFICIENCY” (University of Saskatchewan, priority 2016, published 2019)
